Test results: US8980917B2, “Methods for treating or preventing brain infections” (The Johns Hopkins University, priority 2008, dated 2015)
Entries after “also recorded” stand apart in the source; their conditions may differ.

Legend:
[1] = test system: blood-brain barrier; assay: Blood-brain barrier permeability by Evans blue dye extravasation into the brain; type: in vivo, mouse; details: cPLA2α-/- mice
[2] = test system: E. coli K1 strain RS218; assay: Mouse model of experimental hematogenous E. coli meningitis (cPLA2α-/- and wild type BALB/c mice); type: in vivo; details: i.v. 1.2 μg/mouse in 50 μl PBS 30 mins before bacterial injection
Experimental: cPLA2α−/− and wild type mice, either male or female, […] that had been backcrossed on the BALB/c strain for >10 generations were used^14. All procedures and handling techniques were approved by The Johns Hopkins Animal Care and Use Committee.
Each mouse received 1×10^7 CFU of E. coli K1 strain RS218 in 100 μl PBS via the tail vein. One hour later, mouse chest was cut open, and blood from right ventricle was collected and plated for bacteria counts, which were expressed as CFUs/ml of blood. The mouse was then perfused with a mammalian Ringer's solution by transcardiac perfusion through a 23-gauge needle inserted into the left ventricle of the heart under the perfusion pressure of about 100 mmHg. The perfusate exited through a cut in the right atrium. […] The brains were removed, weighed and homogenized in 2 ml RPMI followed by plating for bacterial counts, which were expressed as CFUs/gm. Since E. coli K1 penetration into the brain is shown to depend on the magnitude of bacteremia^5,7, bacterial penetration into the brain was also expressed as [(brain CFUs per gm)/(blood CFUs per ml)]×100. Kidneys and spleens were also removed, homogenized and plated for determination of bacterial counts, which were expressed as CFUs/gm. […]

[3] = test system: C. neoformans; assay: Mouse model of C. neoformans meningitis/meningoencephalitis following intravenous inoculation; type: in vivo; details: strain B-3501A; cPLA2α-/- mice; i.v. 1.2 μg/mouse 30 mins before C. neoformans injection; 24 hours
Experimental: The mouse model of Cryptococcal meningitis/meningoencephalitis following intravenous inoculation was used to determine the hematogenous dissemination of C. neoformans to the brain as described previously (7, 8). C. neoformans strains grown on 1% yeast extracts, 2% peptone and 2% dextrose (YPD) agar were suspended in phosphate-buffered saline (PBS, pH 7.4) and counted with a hemocytometer to determine the yeast cell number. This suspension was also cultured on YPD agar plates, and colonies (CFUs) counted after 3 days of incubation at 30° C. as previously described (11). The inoculum size was confirmed by CFUs.
Briefly, female BALB/c mice received 10^5 yeast cells via the tail vein. 24 hours later, the blood specimens were obtained for determination of CFUs, and the animals perfused with sterile Ringer's solution until the perfused solution became colorless. The brains were removed, weighed, homogenized and cultured on YPD agar for determination of CFUs.
cPLA2α. We examined the role of host cPLA2α in C. neoforman strain B-3501A penetration into the brain by studying cPLA2α−/− mice as compared to their strain-matched wild type mice. Each animal received 10^5 yeast cells via the tail vein. 24 hours later, the blood specimens were obtained for determination of CFUs, and the animals perfused with sterile Ringer's solution until the perfused solution became colorless. […]

[4] = test system: E. coli K1 strain RS218; assay: Infant rat model of experimental hematogenous E. coli meningitis; type: in vivo; details: 5-day-old rats, 9 animals; i.p. 50 μg/10 gm one hour before bacteria; p < 0.001 by Fisher's exact test
Experimental: Experimental hematogenous E. coli meningitis was induced in 5-day old rats as previously described (9, 10, 14, 28). Briefly, outbred, specific-pathogen-free pregnant Sprague-Dawley rats with timed conception were purchased from Charles River Breeding laboratory (Wilmington, Mass.). The rats delivered in our vivarium 5 to 7 days after arrival. At 5 days of age, all members of each litter were randomly divided into two groups, to receive intraperitoneally montelukast (50 μg/10 gm of weight in 50 μl PBS) or vehicle control (3.3% DMSO in 50 μl PBS). One hour later, each animal received 1×10^7 CFU of E. coli K1 strain RS218 via intracardiac injection. At one hour after bacterial injection, blood and CSF specimens were obtained as described previously (9, 10, 14, 28) for quantitative cultures. The development of E. coli meningitis (defined as positive CSF cultures) was compared between the two groups of animals.
We also examined one of the CysLT1 antagonists for its effect on E. coli K1 penetration into the brain in our well-characterized infant rat model of experimental hematogenous E. coli meningitis (9, 10, 14, 28). At 5 days of age, all members of each litter were randomly divided to receive intraperitoneally montelukast or vehicle control. […] At one hour after bacterial inoculation, blood and cerebrospinal fluid (CSF) specimens were obtained for quantitative cultures.

[5] = test system: HBMEC monolayers; assay: Integrity of HBMEC monolayers by TEER before and after transcytosis assays; type: cell-based, human; details: at 50 μM
Excerpt: We also examined the effect of C. neoformans traversal on the HBMEC monolayer integrity, as measured by passive diffusion of ^3H-inulin and TEER at the end of the transcytosis experiment as described previously (7).

[6] = developed for asthma; cited from earlier work

Row | SMILES | blood-brain barrier permeability (Evans blue extravasation into the brain) ([1]; 1.2 μg i.v. 30 min before E. coli RS218 injection) | blood-brain barrier permeability (Evans blue extravasation into the brain) ([1]; 1.2 μg/mouse i.v. 30 mins before C. neoformans injection) | E. coli K1 penetration into the brain (brain CFU/gm and percent of brain CFU/blood CFU) [2] | C. neoformans penetration into the brain (CFU/gm) [3] | % of animals with meningitis (positive CSF cultures) [4] [%] | No. of animals with meningitis (positive CSF cultures) [4] | integrity of the HBMEC monolayers (TEER) [5] | safety and tolerability in clinical trials [6]
1 | CCCCC/C=C\C/C=C\C/C=C\C/C=C\CCCC(=O)O [arachidonic acid, Arachidonic acid] | no significantly increased extravasation of intravenously administered Evans blue dye into the brain; also recorded: did not affect the blood-brain barrier permeability | not accompanied by any change in the blood-brain barrier permeability | significantly enhanced E. coli K1 penetration into the brain to the level observed in the wild type mice | significantly enhanced C. neoformans penetration into the brain to the level observed in the wild type mice | – | – | – | –
2 | CC(C)(O)c1ccccc1CC[C@@H](SCC1(CC(=O)O)CC1)c1cccc(/C=C/c2ccc3ccc(Cl)cc3n2)c1 [montelukast] | – | – | – | – | 22 | 2 | did not affect the integrity of the HBMEC monolayers | safe and well tolerated
